Laboratory results reported in patent US8217075B2, “2-amino-2-phenyl-alkanol derivatives, their preparation and pharmaceutical compositions containing them” (Oroxcell, priority 2008, dated 2012).

Legend:
[1] = test system: formalin-induced short- and long-phase pain; conditions: rat, dose of 39.3 mg/kg by subcutaneous route
[2] = test system: abdominal pain by irritation and distension of the colon; conditions: rats, from 13.1 mg/kg and at doses of 26.2 mg/kg by subcutaneous route

CC[C@@](COC(=O)c1cc(OC)c(OC)c(OC)c1)(c1ccccc1)N(C)C(=O)OCc1ccc(OC)cc1 [Example 4]
short- and long-phase activity [1]: demonstrated short- and long-phase activity
activity in abdominal pain test [2]: demonstrated activity
